Converted amounts (≈) assume the structure as drawn.
Experiment: Solubility Assay (saturation, shaker 24 hours, supernatant analysed by HPLC)
Details: for solubility at 24 h: 25 °C, thermodynamic from solid; for Solubility (mg/ml) in ethanol: solvent ethanol; for Solubility (mg/ml) in ethanol / Solubility (mg/ml) in water: 25 deg C./60% relative humidity, 24 hours; for Solubility (mg/ml) in water: solvent water
Experimental: 10 mg of the test compound was weighed into a vial, and 1 ml of solvent was added. If the sample dissolved immediately, as evidenced by a formation of a clear solution, more of the test material was added and the vial sonicated for 15 mins. This procedure was repeated until no more test compound could be dissolved, as evidenced by formation of a suspension. The vial containing the suspension was then was sonicated for 15 mins, and placed on a shaker at 25 deg C./60% relative humidity for 24 hours. On removal from the shaker, the sample was centrifuged and the supernatant analysed by HPLC.

| solubility at 24 h (ethanol, organic solvent or mixture) | solubility at 24 h (water) | aqueous solubility (in words) (water, qualitative statement) | Solubility (mg/ml) in ethanol | Solubility (mg/ml) in water | Compound |
| --- | --- | --- | --- | --- | --- |
| 2100 µg/mL (≈ 5.42 mM) | < 500 µg/mL | poorly soluble in water | – | – | O=C(NCC(F)F)c1ccc(-n2[nH]c3c(nnc4c(F)cccc43)c2=O)cc1 [None (free acid), 4-(6-fluoro-3-oxo-1,3-dihydro-pyrazolo[4,3-c]cinnolin-2-yl)-N-(2,2-difluoro-ethyl)-benzamide] |
| – | – | – | <5 mg/mL | <5 mg/mL | [K+] [Potassium] |
| – | – | – | 7.1 mg/mL | <5 mg/mL | Sodium |

| Compound | solubility at 24 h (ethanol, organic solvent or mixture) | solubility at 24 h (water) | aqueous solubility (in words) (water, qualitative statement) | Solubility (mg/ml) in ethanol | Solubility (mg/ml) in water |
| --- | --- | --- | --- | --- | --- |
| [Mg] [Magnesium] | – | – | – | <5 mg/mL | <5 mg/mL |

Source: US20090221590A1, “SALT OF CD 80 ANTAGONIST” (MEDIGENE LIMITED, priority 2006, published 2009)
